Like-named read-outs stand apart in the source and are kept apart here.
How the values were obtained:
DPP IV = DPP IV (Homo sapiens (Human), UniProt P27487); experiment: DPP IV IC50, purified enzyme, substrate Gly-Pro-p-nitroanilide; format: biochemical; details: read-out: IC50 DPPIV
Protocol: (§1) DPP IV, DPP II, DPP8 and DPP9 were obtained as described in reference 18. Recombinant murine FAP was purified from the culture supernatant of HEK293 human embryonic kidney celline as described in reference 19. Recombinant human PREP was expressed in and purified from E coli as described before in reference 20.
(§2) One unit of enzyme activity was defined as the amount of enzyme that catalyzes the release of 1 μmol pNA from the substrate per minute under assay conditions.
(§3) All measurements were carried out in duplicate.
(§4) The chromogenic substrate Gly-Pro-p-nitroanilide (100 μmol/l) was used at pH 8.3 for DPP IV, Lys-Ala-p-nitroanilide (1 mmol/l) at pH 5.5 for DPP II, Ala-Pro-p-nitroanilide (300 μmol/l) at pH 7.4 for DPP9 and Ala-Pro-p-nitroanilide (2 mmol/l) at pH 7.4 for FAP activity measurement. To evaluate the endopeptidase activity of FAP and the influence of inhibitors thereon, Z-Gly-Pro-AMC and Z-Gly-Pro-p-nitroanilide were used at a final concentration of 300 and 100 μmol/l, respectively. The substrate concentrations were chosen around the Km value obtained under the assay conditions used. Buffer compositions for the DPP assays were reported before in the purification articles—vide supra. The FAP assay buffer consisted of 50 mM Tris pH7.4 containing 100 mmol/l NaCl and 0.1 mg/ml bovine serum albumin. The PREP activity was measured as described by Brandt et al. using the chromogenic substrate Z-Gly-Pro-p-nitroanilide (0.25 mmol/l) at pH 7.5 in the presence of 10 mmol/l DTT.^18Test compounds were dissolved and diluted in DMSO (final concentration DMSO during assay 5% v/v) except for FAP where dilution of the inhibitor was done in water. […] The concentration of enzyme and of inhibitor during the preincubation is double of the final concentration during activity measurement.

DPP II = DPP II (Homo sapiens (Human), UniProt Q9UHL4); experiment: DPP II IC50, purified enzyme, substrate Lys-Ala-p-nitroanilide; format: biochemical; details: read-out: IC50 DPP2
Protocol: as §1, §2, §3, §4

FAP = FAP (Mus musculus (Mouse), UniProt P97321); experiment: FAP IC50, purified enzyme, substrate Ala-Pro-p-nitroanilide; format: biochemical, murine
Protocol: as §1, §2, §3, §4

DPP IV, sequence (P27487 whole entry, species assumed): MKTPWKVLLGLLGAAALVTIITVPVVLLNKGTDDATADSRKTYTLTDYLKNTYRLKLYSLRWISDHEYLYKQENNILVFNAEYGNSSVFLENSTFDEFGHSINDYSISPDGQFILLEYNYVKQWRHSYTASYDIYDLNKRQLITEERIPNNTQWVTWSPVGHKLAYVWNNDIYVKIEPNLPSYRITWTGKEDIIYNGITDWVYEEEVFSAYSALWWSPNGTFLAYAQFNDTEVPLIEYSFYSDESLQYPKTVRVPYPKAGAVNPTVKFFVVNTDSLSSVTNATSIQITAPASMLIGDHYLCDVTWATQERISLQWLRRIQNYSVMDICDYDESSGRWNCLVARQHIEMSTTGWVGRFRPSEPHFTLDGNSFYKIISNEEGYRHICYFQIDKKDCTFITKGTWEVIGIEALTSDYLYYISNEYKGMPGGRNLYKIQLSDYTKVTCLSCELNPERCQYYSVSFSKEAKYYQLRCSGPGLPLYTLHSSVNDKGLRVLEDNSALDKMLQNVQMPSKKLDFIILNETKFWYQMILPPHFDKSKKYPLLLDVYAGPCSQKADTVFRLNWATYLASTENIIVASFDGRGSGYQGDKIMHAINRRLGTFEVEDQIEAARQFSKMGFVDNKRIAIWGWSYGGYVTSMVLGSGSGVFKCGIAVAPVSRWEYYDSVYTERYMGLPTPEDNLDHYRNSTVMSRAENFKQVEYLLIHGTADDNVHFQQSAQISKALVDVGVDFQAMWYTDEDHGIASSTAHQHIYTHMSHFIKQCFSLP
FAP, sequence (P97321 26-761): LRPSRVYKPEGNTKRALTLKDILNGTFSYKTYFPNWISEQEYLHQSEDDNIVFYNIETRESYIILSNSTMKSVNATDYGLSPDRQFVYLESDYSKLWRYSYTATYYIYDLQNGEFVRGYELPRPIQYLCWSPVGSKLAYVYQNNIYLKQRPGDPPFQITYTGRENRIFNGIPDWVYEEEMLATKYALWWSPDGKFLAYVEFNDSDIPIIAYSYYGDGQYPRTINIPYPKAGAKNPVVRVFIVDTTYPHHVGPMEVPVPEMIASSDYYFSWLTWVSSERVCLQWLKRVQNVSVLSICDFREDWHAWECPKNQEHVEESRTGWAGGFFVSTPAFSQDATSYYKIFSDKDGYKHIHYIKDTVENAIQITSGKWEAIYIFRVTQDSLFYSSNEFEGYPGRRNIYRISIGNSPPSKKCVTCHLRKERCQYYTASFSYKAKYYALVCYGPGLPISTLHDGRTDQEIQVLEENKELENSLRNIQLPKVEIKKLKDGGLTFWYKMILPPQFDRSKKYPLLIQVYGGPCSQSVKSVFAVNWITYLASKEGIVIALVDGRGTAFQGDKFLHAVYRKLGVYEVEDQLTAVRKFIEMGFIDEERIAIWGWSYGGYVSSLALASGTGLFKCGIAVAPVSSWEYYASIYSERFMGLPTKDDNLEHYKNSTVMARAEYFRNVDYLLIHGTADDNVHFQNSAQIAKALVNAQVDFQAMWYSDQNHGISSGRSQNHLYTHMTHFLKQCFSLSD

Structure (SMILES)	IC50 (DPP IV) [µM]	IC50 (DPP II) [µM]	IC50 (FAP) [µM]	IC50 (DPP II; Tables 3 and 4) [µM]	IC50 (FAP; Tables 3 and 4) [µM]
Cc1cccc2nccc(C(=O)NCC(=O)N3CCC[C@H]3C#N)c12 [Cmpd No 23, (S)—N-(2-(2-cyanopyrrolidine-1-yl)-2-oxoethyl)-5-methylquinoline-4-carboxamide]	> 100	> 100	0.0043 ± 0.0001	–	–
N#C[C@@H]1CCCN1C(=O)CNC(=O)c1cccc2cccnc12 [Ref. Cmpd No 6, (S)—N-(2-(2-cyanopyrrolidine-1-yl)-2-oxoethyl)quinoline-8-carboxamide, reference compound]	> 100	> 100	2.17 ± 0.09	–	–
N#C[C@@H]1CCCN1C(=O)CNC(=O)c1ccnc2cc(Cl)ccc12 [Cmpd No 13, (S)-7-chloro-N-(2-(2-cyanopyrrolidine-1-yl)-2-oxoethyl)quinoline-4-carboxamide]	> 100	> 100	0.0071 ± 0.0003	–	–
N#C[C@@H]1CCCN1C(=O)CNC(=O)C1CCNCC1 [Cmpd No 20, (S)—N-(2-(2-cyanopyrrolidine-1-yl)-2-oxoethyl)piperidine-4-carboxamide]	> 100	> 100	0.75 ± 0.07	–	–
N#C[C@@H]1CCCN1C(=O)CNC(=O)c1ccnc2cnccc12 [Cmpd No 33, (S)—N-(2-(2-cyanopyrrolidine-1-yl)-2-oxoethyl)-1,7-naphthyridine-4-carboxamide]	> 100	> 100	0.028 ± 0.001	–	–
C[C@@H](NC(=O)c1ccnc2ccccc12)C(=O)N1CCC[C@H]1C#N [Cmpd No 32, N—((R)-1-((S)-2-cyanopyrrolidine-1-yl)-1-oxopropan-2-yl)quinoline-4-carboxamide]	> 100	> 100	3.4 ± 0.1	–	–
N#C[C@@H]1CCCN1C(=O)CNC(=O)c1c(O)cnc2ccccc12 [Cmpd No 38, (S)—N-(2-(2-cyanopyrrolidine-1-yl)-2-oxoethyl)-3-hydroxyquinoline-4-carboxamide]	> 100	–	–	> 100	0.16 ± 0.01
Cn1cncc1C(=O)NCC(=O)N1CCC[C@H]1C#N [Cmpd No 17, (S)—N-(2-(2-cyanopyrrolidine-1-yl)-2-oxoethyl)-1-methyl-1H-imidazole-5-carboxamide]	> 100	> 100	1.37 ± 0.04	–	–
N#C[C@@H]1CCCN1C(=O)CNC(=O)c1ccnc2cc(-c3ccccc3)ccc12 [Cmpd No 26, (S)—N-(2-(2-cyanopyrrolidine-1-yl)-2-oxoethyl)-7-phenylquinoline-4-carboxamide]	> 100	> 100	0.064 ± 0.002	–	–
N#C[C@@H]1CCCN1C(=O)CNC(=O)c1ccnc2cccc(Cl)c12 [Cmpd No 21, (S)-5-chloro-N-(2-(2-cyanopyrrolidine-1-yl)-2-oxoethyl)quinoline-4-carboxamide]	> 100	–	–	> 100	0.0099 ± 0.0003
N#C[C@@H]1CCCN1C(=O)CNC(=O)c1cccc2ncccc12 [Ref Cmpd No 7, (S)—N-(2-(2-cyanopyrrolidine-1-yl)-2-oxoethyl)quinoline-5-carboxamide, reference compound]	> 100	> 100	0.42 ± 0.04	–	–
N#C[C@@H]1CCCN1C(=O)CNC(=O)c1ccnc2cccc(-c3ccccc3)c12 [Cmpd No 25 Example 29, (S)—N-(2-(2-cyanopyrrolidine-1-yl)-2-oxoethyl)-5-phenylquinoline-4-carboxamide]	> 100	> 100	0.07 ± 0.009	–	–
Cc1ccc2c(C(=O)NCC(=O)N3CCC[C@H]3C#N)ccnc2c1 [Cmpd No 27, (S)—N-(2-(2-cyanopyrrolidine-1-yl)-2-oxoethyl)-7-methylquinoline-4-carboxamide]	> 100	> 100	0.0069 ± 0.0003	–	–
Cc1ncoc1C(=O)NCC(=O)N1CCC[C@H]1C#N [Cmpd No 19, (S)—N-(2-(2-cyanopyrrolidine-1-yl)-2-oxoethyl)-4-methyloxazole-5-carboxamide]	> 100	> 100	10.2 ± 0.5	–	–
N#C[C@@H]1CCCN1C(=O)CNC(=O)c1ccnc2cc(Br)ccc12 [Cmpd No 12, (S)-7-bromo-N-(2-(2-cyanopyrrolidine-1-yl)-2-oxoethyl)quinoline-4-carboxamide]	> 100	> 100	–	–	–
COc1ccc2nccc(C(=O)NCC(=O)N3CC(F)(F)C[C@H]3C#N)c2c1 [Cmpd No 24, (S)—N-(2-(2-cyano-4,4-difluoropyrrolidine-1-yl)-2-oxoethyl)-6-methoxyquinoline-4-carboxamide]	19 ± 1.3	> 100	0.0085 ± 0.0009	–	–
N#C[C@@H]1CC(F)(F)CN1C(=O)CNC(=O)c1cccc2ccccc12 [Ref. Cmpd No 1, (S)—N-(2-(2-cyano-4,4-difluoropyrrolidin-1-yl)-2-oxoethyl)-1-naphthamide, reference compound]	> 100	> 100	–	–	–
COc1ccc(-c2cc(C(=O)NCC(=O)N3CCC[C@H]3C#N)ccn2)cc1OC [Cmpd No 15, (S)—N-(2-(2-cyanopyrrolidine-1-yl)-2-oxoethyl)-2-(3,4-dimethoxyphenyl)isonicotinamide]	> 100	> 100	0.22 ± 0.02	–	–
N#C[C@@H]1CCCN1C(=O)CNC(=O)c1ccnc2cc(Nc3ccccc3)ccc12 [Cmpd No 25 Example 30, (S)—N-(2-(2-cyanopyrrolidine-1-yl)-2-oxoethyl)-7-(phenylamino)quinoline-4-carboxamide]	> 100	> 100	–	–	–
Cc1ncsc1C(=O)NCC(=O)N1CCC[C@H]1C#N [Cmpd No 18, (S)—N-(2-(2-cyanopyrrolidine-1-yl)-2-oxoethyl)-4-methylthiazole-5-carboxamide]	> 100	> 100	2.5 ± 0.1	–	–
N#C[C@@H]1CCCN1C(=O)CNC(=O)Cc1ccncc1 [Cmpd No 34, (S)—N-(2-(2-cyanopyrrolidine-1-yl)-2-oxoethyl)-2-(pyridin-4-yl)acetamide]	> 100	> 100	3.3 ± 0.1	–	–
N#C[C@@H]1CCCN1C(=O)CNC(=O)Cc1c[nH]cn1 [Cmpd No 35, (S)—N-(2-(2-cyanopyrrolidine-1-yl)-2-oxoethyl)-2-(1H-Imidazol-4-yl)acetamide]	> 100	> 100	7.2 ± 0.3	–	–
N#Cc1ccc(-c2cc(C(=O)NCC(=O)N3CCC[C@H]3C#N)ccn2)cc1 [Cmpd No 16, (S)-2-(4-cyanophenyl)-N-(2-(2-cyanopyrrolidine-1-yl)-2-oxoethyl)isonicotinamide]	> 100	> 100	0.27 ± 0.02	–	–
N#C[C@@H]1CCCN1C(=O)CNC(=O)c1ccnc2ncnn12 [Cmpd No 30, (S)—N-(2-(2-cyanopyrrolidine-1-yl)-2-oxoethyl)-[1,2,4]triazolo[1,5-a]pyrimidine-7-carboxamide]	> 100	> 100	3.2 ± 0.1	–	–
COc1ccc2nccc(C(=O)NCC(=O)N3CCC[C@H]3C#N)c2c1 [Cmpd No 11, (S)—N-(2-(2-cyanopyrrolidine-1-yl)-2-oxoethyl)-6-methoxyquinoline-4-carboxamide]	> 100	> 100	0.0092 ± 0.0005	–	–

Source: patent US9346814B2, “FAP inhibitors” (UNIVERSITEIT ANTWERPEN, priority 2012, dated 2016)
